Assay results from patent publication US6703395B2, “Cyclin dependent kinase inhibitor” (priority 1998, dated 2004).

What was measured:
B16 melanoma [1] = assay: MTT in vitro cytotoxicity assay, B16; format: cell-based, mouse
From the text: (§1) One of the parameters used as the basis for colorimetric assays is the metabolic activity of viable cells. For example, a microtiter assay which uses the tetrazolium salt 3-[4,5-Dimethylthiazol-2-yl]-2,5-diphenyltetrazolium bromide; Thiazolyl blue (hereinafter MTT) is now widely used to quantitate cell proliferation and cytotoxicity, for instance, in drug screening programs and in chemosensitivity testing. Because tetrazolium salts are cleaved only by metabolically active cells, these assays detect viable cells exclusively. In the case of the MTT-assay, yellow soluble tetrazolium salt is reduced to colored water-insoluble formazan salt. After it is solubilized, the formazan formed can easily and rapidly be quantified in a conventional ELISA plate reader at 570 nm (maximum absorbance). The quantity of reduced formazan corresponds to number of vital cells in the culture. […]
(§2) The cell suspensions that were prepared and diluted according to the particular cell type and the expected target cell density (2,500-30,000 cells per well based on cell growth characteristics) were added by pipet (80 μl) into 96 well microtiter plates. […] Usually, test compound were evaluated at six 4-fold dilutions. […] The optical density (OD) was measured at 540 nm with the Labsystem iEMS Reader MF (UK). […]

[2] = tested on: mouse immortalized bone marrow macrophages B10A.4; assay: MTT in vitro cytotoxicity assay, B10#4; format: cell-based
From the text: as §1, §2

U937 = assay: MTT in vitro cytotoxicity assay, U937; format: cell-based
From the text: (§3) One of the parameters used as the basis for colorimetric assays is the metabolic activity of viable cells. For example, a microtiter assay which uses the tetrazolium salt 3-[4,5-Dimethylthiazol-2-yl]-2,5-diphenyltetrazolium bromide; Thiazolyl blue (hereinafter MTT) is now widely used to quantitate cell proliferation and cytotoxicity, for instance, in drug screening programs and in chemosensitivity testing. Because tetrazolium salts are cleaved only by metabolically active cells, these assays detect viable cells exclusively. In the case of the MTT-assay, yellow soluble tetrazolium salt is reduced to colored water-insoluble formazan salt. After it is solubilized, the formazan formed can easily and rapidly be quantified in a conventional ELISA plate reader at 570 nm (maximum absorbance). The quantity of reduced formazan corresponds to number of vital cells in the culture.
as §2, with “plates. Inoculates were allowed a preincubation period of 24 hours at 37° C. and 5% CO2 for stabilization.” for “plates.”

tumor cell lines = assay: MTT in vitro cytotoxicity, panel of tumor cell lines; format: cell-based; settings: summary of Table 1
From the text: as §1, §2

[3] = tested on: human breast carcinoma cell line MCF-7; assay: MTT in vitro cytotoxicity assay, MCF7; format: cell-based
From the text: as §1, §2

[4] = tested on: promyelocytic leukemia HL-60; assay: MTT in vitro cytotoxicity assay, HL-60; format: cell-based, human
From the text: as §1, §2

normal human lymphocytes = assay: MTT in vitro cytotoxicity assay, lymphocytes; format: cell-based; settings: 72 hours incubation
From the text: as §3
as §2, with “plates. Inoculates were allowed a preincubation period of 24 hours at 37° C. and 5% CO2 for stabilization.” for “plates.”

L1210 leukemia = assay: MTT in vitro cytotoxicity assay, L1210; format: cell-based, mouse
From the text: as §1, §2

P388D1 leukemia [5] = assay: In vivo antitumor activity, intraperitoneally transplanted P388D1 leukemia; settings: DBA-2 mice, 1 mg 4x daily for 7 days
[6] = tested on: cervical carcinoma cells HELA; assay: MTT in vitro cytotoxicity assay, HELA; format: cell-based; settings: 72 hours incubation
From the text: as §1, §2

B16F10 melanoma = assay: MTT in vitro cytotoxicity assay, B16F10; format: cell-based, mouse
From the text: as §1, §2

B16 melanoma [7] = assay: In vivo antitumor activity, subcutaneously inoculated B16 melanoma; settings: C57BL-10 mice, 1 mg subcutaneously 4x daily for 7 days
CEM cells [8] = assay: Apoptosis by phase contrast and electron microscopy; format: cell-based, human; settings: 50 μm, 8 hours (FIG. 3)
P388D1 leukemia [9] = assay: MTT in vitro cytotoxicity assay, P388D1; format: cell-based, mouse
From the text: as §1, §2

mouse fibroblasts NIH3T3 = assay: MTT in vitro cytotoxicity assay, NIH3T3; format: cell-based
From the text: as §1, §2

[10] = tested on: mouse immortalized bone marrow macrophages B2.4; assay: MTT in vitro cytotoxicity assay, B2#4; format: cell-based; settings: 72 hours incubation
From the text: as §1, §2

[11] = tested on: Human T-lymphoblastic leukemia cell line CEM; assay: MTT in vitro cytotoxicity assay, CEM; format: cell-based; settings: 72 hours incubation
From the text: as §1, §2

CEM cells [12] = assay: Apoptosis and cell cycle analysis by FACS (DNA content); format: cell-based, human; settings: 50 μm (FIG. 4), method 70 μM, 3-24 hours
Description: Cells (1×10^6/ml) were cultured in 6-well plates with or without 70 μM concentration of test compound at 37° C. and 5% CO2 for 3-24 hours. Following incubation, cells were pelleted, washed in Hank's buffered salt solution and fixed in 96% ethanol overnight at −20° C. Low molecular weight apoptotic DNA was extracted in citrate buffer. RNA was cleaved using RNAse (50 mg/ml).

[13] = mouse
Description: in vivo anti-cancer activity assays: water insoluble compounds: 50% DMSO, 10 mM HCl in saline.
Cells were trypsinized, washed in PBS and suspended in PBS with 0.5% bovine serum albumin. 0.5 miilion cells from this suspension was applied subcutaneously to C57BL-10 mice. […] The compounds (1 mg) were applied subcutaneously 4× daily, for 7 days.
Cells were scraped, washed in PBS and suspended in PBS with 0.5% bovine serum albumin. 0.5 million cells from this suspension was applied intraperitoneally to DBA-2 mice. […] The compounds (1 mg) were applied subcutaneously 4× daily, for 7 days.

## Cn1cnc2c(NCc3ccccc3)nc(NCCO)nc21 [OC, 2-(2-hydroxyethylamino)-6-benzylamino-9-methylpurine]
B16 melanoma [1]; Mus musculus, B16, 72 hours incubation
  IC50: 50.4 µM
[2]; Mus musculus, B104, 72 hours incubation
  IC50: 20.3 µM
U937; Homo sapiens, U-937, 72 hours incubation
  IC50: 63.8 µM
Tumor cell lines
  toxicity to tumor cells (in words): moderately effective
[3]; Homo sapiens, MCF7, 72 hours incubation
  IC50: 30.5 µM
[4]; Homo sapiens, HL-60, 72 hours incubation
  IC50: 28.9 µM
Normal human lymphocytes; Homo sapiens, Lymphocyte
  IC50: 267 µM
L1210 leukemia; Mus musculus, L1210, 72 hours incubation
  IC50: 23.5 µM
P388D1 leukemia [5]
  in vivo activity, P388D1 leukemia model (survival): significant in vivo activity
[6]; Homo sapiens, HeLa
  IC50: 100 µM
B16F10 melanoma; Mus musculus, B16-F10, 72 hours incubation
  IC50: 20.6 µM
B16 melanoma [7]
  in vivo activity, B16 melanoma model (medium survival time): significant in vivo activity
CEM cells [8]
  apoptosis by phase contrast / electron microscopy: apoptosis had occurred
P388D1 leukemia [9]; Mus musculus, P388D1, 72 hours incubation
  IC50: 14.5 µM
Mouse fibroblasts NIH3T3; Mus musculus, NIH3T3, 72 hours incubation
  IC50: 267 µM
[10]; Mus musculus, Bone marrow macrophage
  IC50: 8.1 µM
[11]; Homo sapiens
  IC50: 20.7 µM

## CCC(CO)Nc1nc(NCc2ccccc2)c2ncn(C(C)C)c2n1 (stereo not drawn) [ROSC, 2-[(1-ethyl-2-hydroxyethyl)amino]-6-benzylamino-9-isopropylpurine]
CEM cells [12]
  apoptosis by flow cytometric analysis of DNA content: Extensive apoptosis
CEM cells [8]
  apoptosis by phase contrast / electron microscopy: apoptosis had occurred

## CC(C)=CCNc1ncnc2nc[nH]c12 [IP, isopentenyladenine]
B16 melanoma [1]; 72 hours incubation
  IC50: 267 µM
[2]; 72 hours incubation
  IC50: 267 µM
U937; 72 hours incubation
  IC50: 267 µM
Tumor cell lines
  toxicity to tumor cells (in words): did not show significant toxicity
[3]; 72 hours incubation
  IC50: 267 µM
[4]; 72 hours incubation
  IC50: 157 µM
Normal human lymphocytes
  IC50: 267 µM
L1210 leukemia; 72 hours incubation
  IC50: 267 µM
P388D1 leukemia [5]
  in vivo activity, P388D1 leukemia model (survival): no activity
[6]
  IC50: 267 µM
B16F10 melanoma; 72 hours incubation
  IC50: 267 µM
B16 melanoma [7]
  in vivo activity, B16 melanoma model (medium survival time): no activity
[13]
  toxicity in vivo / tissue necrosis at the site of application: no activity and toxicity
P388D1 leukemia [9]; 72 hours incubation
  IC50: 267 µM
Mouse fibroblasts NIH3T3; 72 hours incubation
  IC50: 267 µM
[10]
  IC50: 267 µM
[11]
  IC50: 169 µM
